The series has as its system microglia-specific gene profiles, E4FAD mouse brain. Kind of series: scRNA-seq of EFAD mouse brains with miR-195-5p over-expression. Type of series: in vivo. The note with it: Mic.C0 and Mic.C2 microglial sub-clusters; N=4 pooled mice/condition. As to the method:
Changes in microglia-specific gene profiles with miR-195-5p over-expression in E4FAD mouse brain. scRNA-seq analysis of EFAD mouse brains with miR-195-5p over-expression was performed (FIG. 15; N=4 pooled mice/condition). Single cell suspensions were prepared and processed with the 10× Genomics Chromium platform. After quality control (QC), the gene-level UMIs data were normalized by a regularized negative binomial regression analysis (Hafemeister, C. & Satija, R. Genome Biology 20, 296, (2019)). Genes were selected that were detected in more than one cell and cells with sequencing reads in 200˜4,000 genes and mitochondrial read rate of less than 50%. […] The significant principal components as determined by a JackStraw permutation procedure were selected for cell clustering using Seurat's graph-based clustering approach (Butler, A., et al. Nature Biotechnology 36, 411, (2018)). […] After removing predicted doublets from the clusters, the cluster marker genes were observed and the expression patterns of known gene markers were analyzed to annotate clusters into major cell-types: excitatory neurons (Ex; marked by NRGN), inhibitory neurons (In; GAD1), astrocytes (Ast; AQP4, GFAP), oligodendrocytes (Oli; PLP1, MBP), microglia (Mic; CSF1R, CD74), oligodendrocyte progenitor cells (Opc; VCAN), and endothelial cells (End; FLT1). […]

Regarding “UAGCAGCACAGAAAUAUUGGC (chemistry not given here) [miR-195-5p, over-expressed via AAV2-containing miR-195-5p from ABM Inc]”, the “top GO pathways enriched with microglial sub-cluster DEGs” value was “down-regulates innate immune system and effector responses”.

For the origin of these results see patent publication US20240301408A1, “MICRORNA 195 COMPOSITIONS AND METHODS FOR TREATING COGNITIVE IMPAIRMENT” (UNITED STATES GOVERNMENT AS REPRESENTED BY THE DEPARTMENT …, priority 2021, published 2024).
